Patent US12655156B2, “Oxadiazolopyrazines and oxadiazolopyridines useful as mitochondrial uncouplers” (Virginia Tech Intellectual Properties, Inc., priority 2018, dated 2026)

test system: Male C57BL/6J mice on western diet; experiment: Diet induced obesity reversal mouse study; format: in vivo; settings: WD containing 1-112, ~60 mg/kg/day, after 28 days of WD
Source text: FIGS. 2A-2C. Diet induced obesity reversal data, for mice given a regular chow diet, a Western diet, or a Western diet plus compound 1-112. FIG. 2A, Body mass versus time; FIG. 2B, fat mass (measured by EchoMRI) versus time; FIG. 2C, food intake (last 14 days) versus time.
Male C57BL/6J mice aged 3 months were assigned to either normal chow diet (Chow, n=5) or western diet (WD, n=10) for 28 days. After 28 days half of the WD group were switched to WD containing compound 1-112 at a concentration resulting in consumption of ˜60 mg/kg/day 1-112 (1-112 60 mpk). Body mass (A), fat mass (measured by EchoMRI (B)), and food intake (C, for the final 14 days) were recorded as indicated.

**Q.** Which Body mass does the source give for `Oc1nc2nonc2nc1Nc1ccc(-c2ccc(F)cc2)cc1` [1-112, 6-((4′-fluoro-[1,1′-biphenyl]-4-yl)amino)-[1,2,5]oxadiazolo[3,4-b]pyrazin-5-ol] here?
**A.** Its Body mass is “lost body weight”.

**Q.** What about the “Fat mass (measured by EchoMRI)” value of the same molecule?
**A.** The value was “lost body weight and fat mass”.

same assay, conditions: WD containing 1-112, ~60 mg/kg/day; final 14 days

**Q.** Which Food intake does the source give for `Oc1nc2nonc2nc1Nc1ccc(-c2ccc(F)cc2)cc1` [1-112, 6-((4′-fluoro-[1,1′-biphenyl]-4-yl)amino)-[1,2,5]oxadiazolo[3,4-b]pyrazin-5-ol] here?
**A.** The Food intake was “without a significant change in food intake”.

test system: whole cells (NMuLi, C2C12, and L6 cells, isolated cardiomyocytes, human primary fibroblasts); experiment: Oxygen consumption rate (OCR) in whole cells, Seahorse XF-24 Flux Analyzer; format: cell-based; settings: increase in OCR; binned EC50 values
Procedure, shortened: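 NMuLi, C2C12 and L6 cells (3.5×10^4/well), cardiomyocytes (4×10^4/well) and human primary fibroblasts (1.1×10^4/well) adhered 24 h, then equilibrated 30 min at 37° C in unbuffered DMEM with pyruvate and glutamine, pH 7.4. Compounds injected during run; OCR read over 2 min periods. EC50 for OCR increase, binned.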

**Q.** Which EC50 does the source give for `Oc1nc2nonc2nc1Nc1ccc(-c2ccc(F)cc2)cc1` [1-112, 6-((4′-fluoro-[1,1′-biphenyl]-4-yl)amino)-[1,2,5]oxadiazolo[3,4-b]pyrazin-5-ol] here?
**A.** The EC50 was at most 5 µM.

**Q.** With `Oc1nc2nonc2nc1Nc1ccc(C2CCCCC2)cc1` [1-205, 6-((4-cyclohexylphenyl)amino)-[1,2,5]oxadiazolo[3,4-b]pyrazin-5-ol] as the molecule, how does the EC50 read?
**A.** Its EC50 is at most 5 µM.

**Q.** Which EC50 does the source give for `O=[N+]([O-])c1cccc(Nc2nc3nonc3nc2O)c1` [1-206, 6-((3-nitrophenyl)amino)-[1,2,5]oxadiazolo[3,4-b]pyrazin-5-ol] here?
**A.** Its EC50 is over 20 µM.

**Q.** Which EC50 does the source give for `Oc1nc2nonc2nc1Nc1ccc(C(F)(F)F)nc1` [1-208, 6-((6-(trifluoromethyl)pyridin-3-yl)amino)-[1,2,5]oxadiazolo[3,4-b]pyrazin-5-ol] here?
**A.** Its EC50 is over 20 µM.

**Q.** For `Oc1nc2nonc2nc1NC1CCCCC1` [1-212, 6-(cyclohexylamino)-[1,2,5]oxadiazolo[3,4-b]pyrazin-5-ol], which EC50 is on record?
**A.** The EC50 was over 20 µM.

**Q.** With `COc1nc2nonc2cc1Nc1ccc(-c2ccc(C(F)(F)F)nc2)cc1` [1-225, 5-methoxy-N-(4-(6-(trifluoromethyl)pyridin-3-yl)phenyl)-[1,2,5]oxadiazolo[3,4-b]pyridin-6-amine] as the molecule, how does the EC50 read?
**A.** Its EC50 is over 20 µM.

**Q.** Which EC50 does the source give for `Oc1nc2nonc2cc1Nc1cccc(OC(F)(F)F)c1` [1-229, 6-((3-(trifluoromethoxy)phenyl)amino)-[1,2,5]oxadiazolo[3,4-b]pyridin-5-ol] here?
**A.** Its EC50 is 5 to 20 µM.

**Q.** For `Oc1nc2nonc2cc1Nc1ccc(OC(F)(F)F)c(F)c1` [1-230, 6-((3-fluoro-4-(trifluoromethoxy)phenyl)amino)-[1,2,5]oxadiazolo[3,4-b]pyridin-5-ol], which EC50 is on record?
**A.** Its EC50 is over 20 µM.

**Q.** With `Oc1nc2nonc2cc1Nc1cccc(C(F)(F)F)c1F` [1-232, 6-((2-fluoro-3-(trifluoromethyl)phenyl)amino)-[1,2,5]oxadiazolo[3,4-b]pyridin-5-ol] as the molecule, how does the EC50 read?
**A.** Its EC50 is over 20 µM.

**Q.** For `Oc1nc2nonc2cc1Nc1cccc(C(F)(F)F)c1` [1-234, 6-((3-(trifluoromethyl)phenyl)amino)-[1,2,5]oxadiazolo[3,4-b]pyridin-5-ol], which EC50 is on record?
**A.** The EC50 was over 20 µM.

**Q.** For `Oc1nc2nonc2cc1Nc1ccc(C(F)(F)F)cc1` [1-242, 6-((4-(trifluoromethyl)phenyl)amino)-[1,2,5]oxadiazolo[3,4-b]pyridin-5-ol], which EC50 is on record?
**A.** Its EC50 is over 20 µM.

**Q.** With `Oc1nc2nonc2cc1Nc1cc(C(F)(F)F)cc(C(F)(F)F)c1` [1-243, 6-((3,5-bis(trifluoromethyl)phenyl)amino)-[1,2,5]oxadiazolo[3,4-b]pyridin-5-ol] as the molecule, how does the EC50 read?
**A.** The EC50 was at most 5 µM.

**Q.** With `Oc1nc2nonc2cc1Nc1cccc(F)c1F` [1-250, 6-((2,3-difluorophenyl)amino)-[1,2,5]oxadiazolo[3,4-b]pyridin-5-ol] as the molecule, how does the EC50 read?
**A.** Its EC50 is at most 5 µM.

**Q.** With `Oc1nc2nonc2cc1Nc1ccc(OC(F)(F)F)cc1F` [1-251, 6-((2-fluoro-4-(trifluoromethoxy)phenyl)amino)-[1,2,5]oxadiazolo[3,4-b]pyridin-5-ol] as the molecule, how does the EC50 read?
**A.** The EC50 was at most 5 µM.

test system: humans; experiment: not given; settings: patients consuming ~300 mg/d, over several months, without changes in food intake; cited from earlier work

**Q.** For `O=[N+]([O-])c1ccc(O)c([N+](=O)[O-])c1` [DNP, 2,4-dinitrophenol], which Average weight loss is on record?
**A.** Its Average weight loss is 1.5 pounds per week.
